One data set addresses T1, DNA-gyrase (Escherichia coli, UniProt P0AES4+P0AES6).
T1 construct: made in house; host or cells: E. coli N4186 and E. coli MK47
Briefly: DNA-gyrase inhibition, supercoiling method (relaxed pUC18 or pUC19 plasmid DNA as substrate). It is filed as biochemical. The conditions noted are these: E. coli DNA-gyrase. The source says:
The inhibitory action on the DNA-gyrase activity in bacteria can be determined, for example, by means of the supercoiling method described by R. Otter and N. R. Cozzarelli in Methods in Enzymology, Vol. 100, pp. 171-180 (1983). The DNA-gyrase used was isolated from E. coli N4186 and from the sub-unit B of E. coli MK47 (Mitsuchi et al., JBL 159, 9199-9201 (1984)). Relaxed pUC18 or pUC19 plasmid DNA was used as the substrate. The results determined in this test are compiled in the following Table, with the results being expressed as the MNC (maximum non-effective concentration) in μg/ml.

The next data set can be described thus: Toxicity, LD50. Conditions: in vivo.

T1 sequence (P0AES4 whole entry, one chain of several): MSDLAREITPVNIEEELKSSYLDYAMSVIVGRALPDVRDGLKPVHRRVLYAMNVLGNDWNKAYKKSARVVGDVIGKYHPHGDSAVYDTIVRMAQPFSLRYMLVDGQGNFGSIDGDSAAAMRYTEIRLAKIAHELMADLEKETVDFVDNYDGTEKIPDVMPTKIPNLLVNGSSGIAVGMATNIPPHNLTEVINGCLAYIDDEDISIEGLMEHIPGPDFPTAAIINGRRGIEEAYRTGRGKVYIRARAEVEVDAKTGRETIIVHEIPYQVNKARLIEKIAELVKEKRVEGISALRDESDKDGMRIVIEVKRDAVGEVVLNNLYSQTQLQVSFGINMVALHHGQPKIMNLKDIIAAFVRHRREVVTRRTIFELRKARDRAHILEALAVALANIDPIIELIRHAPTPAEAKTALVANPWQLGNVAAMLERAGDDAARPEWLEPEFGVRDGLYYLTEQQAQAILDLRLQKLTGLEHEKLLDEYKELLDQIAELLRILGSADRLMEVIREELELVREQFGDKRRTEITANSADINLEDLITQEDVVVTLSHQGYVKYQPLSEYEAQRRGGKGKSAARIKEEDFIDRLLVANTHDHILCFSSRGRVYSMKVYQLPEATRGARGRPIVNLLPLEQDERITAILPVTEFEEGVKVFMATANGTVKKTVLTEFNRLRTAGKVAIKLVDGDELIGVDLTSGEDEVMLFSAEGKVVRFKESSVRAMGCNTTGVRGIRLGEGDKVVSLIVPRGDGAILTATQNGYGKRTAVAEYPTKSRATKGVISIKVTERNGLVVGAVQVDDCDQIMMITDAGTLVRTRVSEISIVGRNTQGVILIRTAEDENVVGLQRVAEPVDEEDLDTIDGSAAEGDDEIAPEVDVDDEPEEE

As to `CCn1c2cc(N3CCN(C)CC3)c(F)cc2n2c(=O)[nH]c(=O)cc12` [Example 1, 5-ethyl-8-fluoro-7-(4-methyl-1-piperazinyl)pyrimido[1,6-a]benzimidazole-1,3(2H,5H)-dione], the “Activity MNC (maximum non-effective concentration)” value at DNA-gyrase was 2 µg/mL.

Turning to `O=C(O)C(F)(F)F.O=c1cc2n(C3CC3)c3cc(N4CCNCC4)c(F)cc3n2c(=O)[nH]1` [Example 2, 5-cyclopropyl-8-fluoro-7-(1-piperazinyl)-pyrimido[1,6-a]benzimidazole-1,3(2H,5H)-dione trifluoroacetate], the LD50 in “Toxicity, LD50” (iv) was 30 mg/kg; in “Toxicity, LD50” (po), greater than 2000 mg/kg. Further, the “Activity MNC (maximum non-effective concentration)” value on DNA-gyrase was found to be 0.45 µg/mL.

Turning to `CCn1c2cc(N3CCN(C)CC3)c(F)cc2n2c(=O)[nH]c(=S)cc12` [Example 3], the “Activity MNC (maximum non-effective concentration)” value at DNA-gyrase worked out at 2 µg/mL.

Consider `Cl.O=c1cc2n(C3CC3)c3cc(N4CCNCC4)c(F)cc3n2c(=O)n1O` [Example 4, 5-cyclopropyl-8-fluoro-2-hydroxy-7-(1-piperazinyl)-pyrimido[1,6-a]benzimidazole-1,3(2H,5H)-dione hydrochloride], for which the LD50 was 30 mg/kg in “Toxicity, LD50” (iv) and greater than 4000 mg/kg in the data set “Toxicity, LD50” (po). Besides, the “Activity MNC (maximum non-effective concentration)” value at DNA-gyrase was 2 µg/mL.

For the compound `CCn1c2cc(N3CCNCC3)c(F)cc2n2c(=O)[nH]c(=O)cc12` [Example 8, 5-ethyl-8-fluoro-7-(1-piperazinyl)pyrimido[1,6-a]benzimidazole-1,3(2H,5H)-dione], the “Activity MNC (maximum non-effective concentration)” value on DNA-gyrase is 1 µg/mL.

Usually LD50 stands for the dose expected to kill half of the subjects tested.

Values taken from patent publication US5283248A, “Amino substituted pyrimido[1,6-2]benzimidazoles” (priority 1989, dated 1994).
